Source: patent US3968129A, “Azidophenol amine compounds and therapeutic compositions” (Boehringer Mannheim G.m.b.H., priority 1974, dated 1976)

Legend:
[1] = in vivo; details: iv; for LD50: mouse, i.v. into tail vein within 5 seconds, dosage at which 50% of the mice die, read-out: Acute Toxicity LD50 Mouse; for therapeutic index (LD50/DE250): ratio of LD50 (mouse i.v.) to DE250 (wake rabbit i.v.)
Description: (§1) The following tests were carried out to determine the cardiac β-receptor blocking activity and the acute toxicity of certain compounds representative of the invention, as well as of a conventional comparison compound.
In another series of tests, the acute toxicity in mice of the test compounds by intravenous administration was determined as a measure of the tolerance (calculated as LD50 = dosage at which 50% of the mice die). The substances were injected, within a time period of 5 seconds, in dissolved form into the tail vein of 5 male and 5 female mice each, in increasing dosages. From the results (percentage of dead animals) at the various dosages, the mean lethal dosage was ascertained graphically or by way of programmed test analysis.
The results of both series of tests are set forth in the table below which contains, in addition, a calculated value expressing the ratio of LD50 : DE250 for each test compound.

[2] = tested on: cardiac β-receptor; test: Cardiac β-receptor blocking activity: inhibition of isoprenalin-induced heart frequency increase (tachycardia) in wake rabbits; assay type: in vivo; details: wake rabbit; for Blocking of Isoprenalin Tachycardia in wake rabbits: Heartbeat Frequency x±sx: isoprenalin 1 μg/kg i.v. 30 min after infusion; for DE250: interpolated dosage which limits the frequency increase to 250 beats/min
Description: as §1
The cardiac β-receptor blocking activity of the test compounds was evaluated by determination of the inhibition of isoprenalin-induced heart frequency increase in wake rabbits. This type of inhibition is a typical property of β-receptor blocking bio catalysts.
The tests were carried out on rabbits weighing between 2 to 3.5 kg settled in wooden cages with EKG-electrodes inserted into the hind-quarters s.c. The heart frequency was read via an integrator (15 seconds) as a digital value. The substances to be tested were infused through a small tube to the ear vein of the rabbits over a period of 15 minutes 30 minutes after completion of the infusion, isoprenalin (1 μg/kg) was intravenously injected. The results were set forth in terms of the reduction of the heartbeat increase induced by isoprenalin and a value (DE250) calculated as the dosage required to limit such increase to 250 heart beats/min.

Compound: CC(C)(C)NCC(O)COc1ccccc1N=[N+]=[N-] (stereo not shown) [Compound 4, 2-(2-Hydroxy-3-tert.-butylaminopropoxy)-azidobenzene]
- LD50 [1]: 29 mg/kg
- therapeutic index (LD50/DE250) [1]: 58
- Blocking of Isoprenalin Tachycardia in wake rabbits: Heartbeat Frequency x±sx ([2]; dosage 0.1 mg/kg i.v.): 282± 5 Beats/minute
- Blocking of Isoprenalin Tachycardia in wake rabbits: Heartbeat Frequency x±sx ([2]; dosage 0.5 mg/kg i.v.): 237± 7 Beats/minute
- Blocking of Isoprenalin Tachycardia in wake rabbits: Heartbeat Frequency x±sx ([2]; dosage 1.0 mg/kg i.v.): 246± 6 Beats/minute
- Blocking of Isoprenalin Tachycardia in wake rabbits: Heartbeat Frequency x±sx ([2]; dosage 5.0 mg/kg i.v.): 245±14 Beats/minute
- DE250 [2]: 0.5 mg/kg i.v.

Compound: CC(C)NCC(O)COc1cccc(N=[N+]=[N-])c1 (stereo not shown) [Compound 2, 3-(2-Hydroxy-3-isopropylaminopropoxy)-azidobenzene]
- LD50 [1]: 50 mg/kg
- therapeutic index (LD50/DE250) [1]: 40
- Blocking of Isoprenalin Tachycardia in wake rabbits: Heartbeat Frequency x±sx ([2]; dosage 0.5 mg/kg i.v.): 282± 9 Beats/minute
- Blocking of Isoprenalin Tachycardia in wake rabbits: Heartbeat Frequency x±sx ([2]; dosage 1.0 mg/kg i.v.): 258±10 Beats/minute
- Blocking of Isoprenalin Tachycardia in wake rabbits: Heartbeat Frequency x±sx ([2]; dosage 5.0 mg/kg i.v.): 205± 9 Beats/minute
- DE250 [2]: 1.3 mg/kg i.v.

Compound: CC(C)NCC(O)COc1ccccc1N=[N+]=[N-] (stereo not shown) [Compound 1, 2-(2-Hydroxy-3-isopropylaminopropoxy)-azidobenzene]
- LD50 [1]: 25 mg/kg
- therapeutic index (LD50/DE250) [1]: 80
- Blocking of Isoprenalin Tachycardia in wake rabbits: Heartbeat Frequency x±sx ([2]; dosage 0.01 mg/kg i.v.): 288± 8 Beats/minute
- Blocking of Isoprenalin Tachycardia in wake rabbits: Heartbeat Frequency x±sx ([2]; dosage 0.1 mg/kg i.v.): 252±10 Beats/minute
- Blocking of Isoprenalin Tachycardia in wake rabbits: Heartbeat Frequency x±sx ([2]; dosage 0.5 mg/kg i.v.): 250± 5 Beats/minute
- Blocking of Isoprenalin Tachycardia in wake rabbits: Heartbeat Frequency x±sx ([2]; dosage 1.0 mg/kg i.v.): 236±11 Beats/minute
- Blocking of Isoprenalin Tachycardia in wake rabbits: Heartbeat Frequency x±sx ([2]; dosage 5.0 mg/kg i.v.): 223± 6 Beats/minute
- DE250 [2]: 0.3 mg/kg i.v.

Compound: CC(C)(C)NCC(O)COc1cccc(N=[N+]=[N-])c1 (stereo not shown) [Compound 3, 3-(2-Hydroxy-3-tert.-butylaminopropoxy)-azidobenzene]
- LD50 [1]: 50 mg/kg
- therapeutic index (LD50/DE250) [1]: 60
- Blocking of Isoprenalin Tachycardia in wake rabbits: Heartbeat Frequency x±sx ([2]; dosage 0.1 mg/kg i.v.): 317±10 Beats/minute
- Blocking of Isoprenalin Tachycardia in wake rabbits: Heartbeat Frequency x±sx ([2]; dosage 0.5 mg/kg i.v.): 256±10 Beats/minute
- Blocking of Isoprenalin Tachycardia in wake rabbits: Heartbeat Frequency x±sx ([2]; dosage 2.0 mg/kg i.v.): 222± 6 Beats/minute
- Blocking of Isoprenalin Tachycardia in wake rabbits: Heartbeat Frequency x±sx ([2]; dosage 5.0 mg/kg i.v.): 235±10 Beats/minute
- Blocking of Isoprenalin Tachycardia in wake rabbits: Heartbeat Frequency x±sx ([2]; dosage printed "10" mg/kg i.v. (Compound 3 line)): 244± 8 Beats/minute
- DE250 [2]: 0.8 mg/kg i.v.

Compound: CC(=O)Nc1ccc(OCC(O)CNC(C)C)cc1 (stereo not shown) [Comparison Compound A, 4-[2-hydroxy-3-isopropylaminopropoxy]acetanilide, reference compound]
- LD50 [1]: 69 mg/kg
- Blocking of Isoprenalin Tachycardia in wake rabbits: Heartbeat Frequency x±sx ([2]; dosage 0.5 mg/kg i.v.): 307± 7 Beats/minute
- Blocking of Isoprenalin Tachycardia in wake rabbits: Heartbeat Frequency x±sx ([2]; dosage 1.0 mg/kg i.v.): 264± 9 Beats/minute
- Blocking of Isoprenalin Tachycardia in wake rabbits: Heartbeat Frequency x±sx ([2]; dosage 2.0 mg/kg i.v.): 250± 4 Beats/minute
- Blocking of Isoprenalin Tachycardia in wake rabbits: Heartbeat Frequency x±sx ([2]; dosage 5.0 mg/kg i.v.): 246± 7 Beats/minute
- Blocking of Isoprenalin Tachycardia in wake rabbits: Heartbeat Frequency x±sx ([2]; dosage 10.0 mg/kg i.v.): 217± 4 Beats/minute
- Blocking of Isoprenalin Tachycardia in wake rabbits: Heartbeat Frequency x±sx ([2]; dosage 20.0 mg/kg i.v.): 225± 6 Beats/minute
- DE250 [2]: 2.5 mg/kg i.v.
